Laboratory results: ChEMBL document CHEMBL4002569, “Improved anticancer and antiparasitic activity of new lawsone Mannich bases” (Eur J Med Chem, 2017)
Calls of active or inactive are those of the source. No cut-off for these calls is given here.

How the values were obtained:
MDA-MB-231 [1] = test: Antiproliferative activity against human MDA-MB-231 cells at >10 to 25 uM after 96 hrs by MTT assay; format: functional, cell-based
BXPC-3 [2] = test: Antiproliferative activity against human BxPC3 cells at >10 to 25 uM after 96 hrs by MTT assay; format: functional, cell-based
PC-3 [3] = test: Antiproliferative activity against human PC3 cells at >10 to 25 uM after 96 hrs by MTT assay; format: functional, cell-based
MDA-MB-231 [4] = test: Antiproliferative activity against human MDA-MB-231 cells at <10 uM after 96 hrs by MTT assay; format: functional, cell-based
BXPC-3 [5] = test: Antiproliferative activity against human BxPC3 cells at <10 uM after 96 hrs by MTT assay; format: functional, cell-based
PC-3 [6] = test: Antiproliferative activity against human PC3 cells at <10 uM after 96 hrs by MTT assay; format: functional, cell-based
MDA-MB-231 [7] = test: Antiproliferative activity against human MDA-MB-231 cells at <25 uM after 96 hrs by MTT assay; format: functional, cell-based
BXPC-3 [8] = test: Antiproliferative activity against human BxPC3 cells at <25 uM after 96 hrs by MTT assay; format: functional, cell-based
PC-3 [9] = test: Antiproliferative activity against human PC3 cells at <25 uM after 96 hrs by MTT assay; format: functional, cell-based
Entamoeba histolytica [10] = test: Antiamoebic activity against Entamoeba histolytica assessed as growth inhibition at 200 ug/ml after 24 hrs by trypan blue dye-based hemocytometer relative to control; format: functional; settings: read-out: GI
Entamoeba histolytica [11] = test: Antiamoebic activity against Entamoeba histolytica assessed as growth inhibition at 200 ug/ml after 48 hrs by trypan blue dye-based hemocytometer relative to control; format: functional; settings: read-out: GI
Entamoeba histolytica [12] = test: Antiamoebic activity against Entamoeba histolytica assessed as growth inhibition at 200 ug/ml after 72 hrs by trypan blue dye-based hemocytometer relative to control; format: functional; settings: read-out: GI
MDA-MB-231 [13] = test: Antiproliferative activity against human MDA-MB-231 cells at 1 to 50 uM after 96 hrs by MTT assay; format: functional, cell-based
BXPC-3 [14] = test: Antiproliferative activity against human BxPC3 cells at 1 to 50 uM after 96 hrs by MTT assay; format: functional, cell-based
PC-3 [15] = test: Antiproliferative activity against human PC3 cells at 1 to 50 uM after 96 hrs by MTT assay; format: functional, cell-based
518A2 [16] = test: Antiproliferative activity against human 518A2 cells after 72 hrs by MTT assay; format: functional, cell-based; settings: 518A2, 72 h
HCT-116 = test: Antiproliferative activity against human HCT116 cells after 72 hrs by MTT assay; format: functional, cell-based; settings: HCT-116, 72 h
KB-V1 = test: Antiproliferative activity against vinblastine-resistant human KBV1 cells after 72 hrs by MTT assay; format: functional, cell-based; settings: KB-V1, 72 h
PANC-1 = test: Antiproliferative activity against human PANC1 cells after 72 hrs by MTT assay; format: functional, cell-based; settings: PANC-1, 72 h
518A2 [17] = test: Induction of reactive oxygen species generation in human 518A2 cells at 0.1 uM after 24 hrs by NBT assay relative to control; format: functional
518A2 [18] = test: Induction of reactive oxygen species generation in human 518A2 cells at 0.5 uM after 24 hrs by NBT assay relative to control; format: functional
[19] = system: Trypanosoma brucei brucei; test: Antitrypanosomal activity against bloodstream trypomastigote form of Trypanosoma brucei brucei 65.3 […] after 72 hrs by Alamar Blue assay; format: functional, cell-based; settings: Trypanosoma brucei, 65.3, 72 h
[20] = system: Trypanosoma brucei brucei; test: Antitrypanosomal activity against bloodstream trypomastigote form of Trypanosoma brucei brucei 65.3 assessed as deformation of microtubule cytoskeleton at 1 uM after 0.5 to 24 hrs by DAPI staining-based fluorescence microscopic method; format: functional
[21] = system: Trypanosoma brucei brucei; test: Antitrypanosomal activity against bloodstream trypomastigote form of Trypanosoma brucei brucei 65.3 assessed as decrease in parasite motility at 1 uM after 0.5 to 24 hrs by DAPI staining-based fluorescence microscopic method relative to control; format: functional
HeLa [22] = test: Cytotoxicity against human HeLa cells assessed as effect on cytoskeleton at 10 uM after 1 to 9 hrs by DAPI staining-based fluorescence microscopic method; format: cell-based
HeLa [23] = test: Cytotoxicity against human HeLa cells assessed as effect on cell viability at 10 uM after 1 to 9 hrs by DAPI staining-based fluorescence microscopic method
[24] = system: Trypanosoma brucei brucei; test: Antitrypanosomal activity against bloodstream trypomastigote form of Trypanosoma brucei brucei 65.3 assessed as cell debris of dead and lysed parasite at 10 uM after 12 to 24 hrs by DAPI staining-based fluorescence microscopic method; format: functional

Row | SMILES | growth inhibition (GI) (MDA-MB-231 [1]) | growth inhibition (GI) (BXPC-3 [2]) | growth inhibition (GI) (PC-3 [3]) | growth inhibition (GI) (MDA-MB-231 [4]) | growth inhibition (GI) (BXPC-3 [5]) | growth inhibition (GI) (PC-3 [6]) | growth inhibition (GI) (MDA-MB-231 [7]) | growth inhibition (GI) (BXPC-3 [8]) | growth inhibition (GI) (PC-3 [9]) | also measured
1 | CCCCCCCNC(C1=C(O)C(=O)c2ccccc2C1=O)c1ccc(F)c(F)c1 (stereo not given) | Active | Active | Active | inactive | inactive | inactive | – | – | – | –
2 | CCCCCCCNC(C1=C(O)C(=O)c2ccccc2C1=O)c1ccc(O)c(OC)c1 (stereo not given) | – | – | – | – | – | – | inactive | inactive | inactive | –
3 | COc1cc(C(NCc2ccccc2)C2=C(O)C(=O)c3ccccc3C2=O)ccc1O (stereo not given) | – | – | – | – | – | – | inactive | inactive | inactive | –
4 | Cc1ncc([N+](=O)[O-])n1CCO [METRONIDAZOLE] | – | – | – | – | – | – | – | – | – | inhibition of growth at 200 µg/mL (Entamoeba histolytica [10]): 54.1%; inhibition of growth at 200 µg/mL (Entamoeba histolytica [11]): 58.7%; inhibition of growth at 200 µg/mL (Entamoeba histolytica [12]): 60.4%
5 | CCCCCCCCCCCCCCCCNC(C1=C(O)C(=O)c2ccccc2C1=O)c1ccc(F)c(F)c1 (stereo not given) | Active | Active | Active | inactive | inactive | inactive | – | – | – | –
6 | CCCCCCCCCCCCNC(C1=C(O)C(=O)c2ccccc2C1=O)c1ccc(F)c(F)c1 (stereo not given) | Active | Active | Active | inactive | inactive | inactive | – | – | – | –
7 | COc1cc(C(NCc2ccccn2)C2=C(O)C(=O)c3ccccc3C2=O)ccc1O (stereo not given) | – | – | – | – | – | – | inactive | inactive | inactive | –
8 | CCCCCCCCCCCCCCNC(C1=C(O)C(=O)c2ccccc2C1=O)c1ccccn1 (stereo not given) | – | – | – | – | – | – | – | – | – | growth inhibition (GI) (MDA-MB-231 [13]): Active; growth inhibition (GI) (BXPC-3 [14]): Active; growth inhibition (GI) (PC-3 [15]): Active; IC50 (518A2 [16]): 3.03 µM; IC50 (HCT-116): 2410 nM; IC50 (KB-V1): 430 nM; IC50 (PANC-1): 3.93 µM; Activity (518A2 [17]): 50%; Activity (518A2 [18]): 70%; IC50 [19]: 350 nM; Activity [20]: Active; Activity [21]: Active; Activity (HeLa [22]): Non-Toxic; Activity (HeLa [23]): Non-Toxic; Activity [24]: Active
